Source: paper PMC3849192, “A Simple Method for Assessing Free Brain/Free Plasma Ratios Using an In Vitro Model of the Blood Brain Barrier” (PLoS ONE, 2013)

Experiments:
[1] = Fraction unbound brain (fu,br), brain homogenate equilibrium dialysis; conditions: brain homogenate (10%), 1 µM, equilibrium dialysis 18 hrs at 37°C
Procedure: The degree of brain binding was assessed by equilibrium dialysis. Brain homogenate (10%) was spiked with test compound at 1 µM in triplicate. […] The plate was then placed in a shaker/incubator to equilibrate for 18 hrs at 37°C. […] After the addition of 50 µl of buffer to the brain homogenate samples, 150 µl of acetonitrile was added to each sample. Finally, 50 µl of water was added to all buffer and brain homogenate samples. The plates were centrifuged and the supernatant analyzed by LC-MS/MS.

[2] = Fraction unbound brain (fu,br), brain slice method; conditions: rat brain slices 300 µm, 1 µM, 5 h incubation
Procedure: Rats (male Sprague-Dawley) were decapitated under isoflurane anesthesia and the brains were removed carefully and immersed in ice-cold oxygenated physiological buffer at pH7.4. A 6 mm coronal section was cut with a razor and mounted with cyanoacrylate glue onto the tray of the microslicer (DTK-Zero 1 Microslicer, Dosak) after which six to eight 300 µm coronal slices from striatal areas were prepared. […] The compounds were dissolved at 1 µM in the buffer and the solution was incubated with the slice for 5 h.
After 5 h, the brain slices were weighed and homogenized in 9 volumes (w/v) of ECF buffer with a sonicator (SONICS VCX 500 and VCX 130). The slice homogenates in ECF buffer were stored at −20°C prior to analysis. The concentrations of the test compound in the brain slice homogenate and in the ECF buffer was determined by LC-MS/MS.
The unbound volume of distribution Vu,brain, or free fraction fu,brain was calculated according to the following equations: [drawing 1] [drawing 2] where Cslice, CECF and V0 are amount of drug in the slice, the drug concentration in the ECF (representing the drug concentration in the brain ECF, i.e. the free concentration), and the water adhesion of the brain slice. V0 has been estimated using ^14C -inulin in a separate experiment in which brain slices were incubated for 1, 2, and 4 min. V0 was obtained from brain slice uptake – inulin time profile (apparent zero-time intercept).

[3] = tested on: in vitro BBB model (co-culture of bovine brain capillary endothelial cells and rat glial cells); test: In vitro BBB co-culture model, Cu,br/Cu,pl ratio; conditions: for In vitro Cu,br/Cu,pl Mean 1 h: 2 µM in luminal compartment, abluminal/luminal concentration at 1 h; for In vitro Cu,br/Cu,pl Mean steady-state: steady-state ratio computed from 1 h data with the blue-norna steady-state calculator
Procedure: Figure 1 Schematic diagram of the experimental protocol. After 12 days of coculture in cell culture medium, both compartments of the in vitro BBB model consisting of a coculture of brain capillary endothlial cells and rat primary glial cells were filled with Hepes-buffered Ringer’s solution and the compounds dissolved at 2 µM were added in the luminal compartment (i.e donor). The presence of glial cells in the abluminal compartment was used to reproduce the non specific binding to brain tisssue within the brain prenchyma in vivo. After 1 hour, aliquots were taken from both compartments. In vitro Cu,br/Cu,pl at 1 h were calculated by dividing the concentration in the abluminal compartment (∼Cu,br) by the concentration in the luminal compartment (∼Cu,pl) at 1 h. The experimental data at 1 h were computed using the blue-norna steady-state calculator to generate the in vitro steady-state Cu,br/Cu,pl.
One hour after the addition of compounds dissolved at 2 µM in the luminal (i.e upper) compartment, aliquots were taken from both compartments previously filled with Hepes-buffered Ringer’s solution at the beginning of the experiment. […] The concentrations in both compartments of the in vitro assay after 1 h were computed using […] blue-norna.com to generate the in vitro steady-state Cu,br/Cu,pl.
The method of Dehouck et al. was used with minor modifications (Fig. 1). Bovine brain endothelial cells isolated from capillary fragments were cocultured with primary mixed glial cells from newborn Sprague–Dawley rats. The glial cells were isolated according to the method of Booher and Sensenbrenner and cultured for 3 weeks, plated on the bottom of cell culture clusters containing six wells each. The endothelial cells were seeded onto collagen-coated polycarbonate cell culture inserts (4.7 cm^2) (Corning Incorp. NY, USA), which were placed in the wells containing glial cells. The medium used for the coculture was Dulbecco’s modified Eagle’s medium supplemented with 10% calf serum, 10% horse serum, 2 mmol/L glutamine, 50 mg/L gentamicin and 1 µg/L basic fibroblast growth factor (Sigma). The medium was changed every second day. Experiments were usually initiated after 12 days of co-culture.
To monitor the integrity of the endothelial cell monolayer, the marker molecule [^14C] sucrose was added to the solution at a concentration of 0.05 µCi/ml. At the start of the transport experiments, buffered Ringer’s solution (pH = 7.4) was added to wells with glial cells. Inserts with brain endothelial cells were placed in these wells and drug solutions at 2 µM were added to the donor compartment. The plates were incubated for 1 h in a polymix shaker at 37°C with a low shaking velocity. Aliquots were taken from the donor compartment in the beginning and at the end of the experiments. The receiver compartments were sampled at the end of the experiments.
The amount of radiotracer in the abluminal compartment was measured in a liquid scintillation analyser (Packard Instrument Company, Meriden, USA). […] The concentrations of the test compound in all samples were analysed by MS/MS.
The mean free brain/plasma ratios were calculated from three individual experiments. One hour ratios were calculated by dividing the drug concentration in the receiver compartment by the free drug concentration in the donor compartment after 1 h. The experimental data at one hour (i.e concentration in both compartment at the beginning of the experiment and after 1 h) were computed using the blue-norna® steady-state calculator (www.blue-norna.com) to predict the in vivo steady-state Cu,br/Cu,pl ratios. For further details on this calculation method see file S1.
The in vivo steady-state Cu,br/Cu,pl were predicted from the in vitro experimental data collected after one hour according to the following equation: […]
Cdonor, t and Creceiver, t are the concentration of drug in the donor and receiver chambers at time t.

fubrain (homog.) Mean [1]: 0.0094 | fubrain (slice) Mean [2]: 0.0100 | In vitro Cu,br/Cu,pl Mean 1 h [3]: 0.10 | In vitro Cu,br/Cu,pl Mean 1 h ([3]; listed as clozapine): 0.103 | In vitro Cu,br/Cu,pl Mean steady-state [3]: 0.71 | In vitro Cu,br/Cu,pl Mean steady-state ([3]; listed as clozapine): 0.713
SMILES: CN1CCN(C2=Nc3cc(Cl)ccc3Nc3ccccc32)CC1 [Clozapine]
